Target: STAT6 (Homo sapiens (Human), UniProt P42226)
Assay: STAT6 degrader assay (HiBiT, HeLa LgBiT clone 4.14)
Format: cell-based
Conditions: HeLa LgBiT clone 4.14, 4-24 h; geometric mean; given for compounds with >80% Emax; read-out: STAT6 degradation DC50
Protocol: This was a HiBit based assay. A HeLa cell line stably transfected with a small protein, LgBit (Large Bit) was obtained from Promega. These cells express endogenous STAT6. A small 11 amino acid gene sequence (HiBiT) was inserted in the STAT6 gene using CRISPR technology. Once STAT6 protein is expressed in the cells, the HiBiT sequence will bind the LgBit in the cells resulting in a functional NanoBiT protein, giving a luminescent tag to STAT6, see FIG. 2.
Single cell clones were prepared and the clone 4.14 was selected for the assay based on that clone showing high luminescence, high STAT6 phosphorylation upon stimulation with IL-4, and inhibition of luminescence when cells were treated with STAT6 siRNA.
HeLa LgBiT clone 4.14 cells were suspended in DMEM with 10% FCS, 1% Pen/Strep, Na-pyrovate and Hygromycin B, at a concentration of 1.25*105 cells pr mL. 5000 cells were added pr well of a 384 well plate and 20 nL of compound was added by Echo® liquid handler. NN6394A (terfenadine, a toxic compound) was added to control wells at 50 μM concentration to establish the assay window. In these wells the cells are dead which equals 100% degradation of STAT6.
After 4-24 h of incubation at 37° C. under 5% CO2/95% air, 5 μL substrate (Nano-GLO®) was added to the wells and the plates were centrifuged and incubated for 0.5 h.
The luminescence in the wells as a measure of non-degraded STAT6 was measured in a plate reader (BMG Pherastar FSX). The measured DC50 (in nM) was determined.
The dose-response curves Examples 3p1, 3e50, 3e17, and 3e51 are shown below (where percent degradation is plotted vs. test compound concentration in M on a log-scale).

Sequence of STAT6 (P42226 whole entry): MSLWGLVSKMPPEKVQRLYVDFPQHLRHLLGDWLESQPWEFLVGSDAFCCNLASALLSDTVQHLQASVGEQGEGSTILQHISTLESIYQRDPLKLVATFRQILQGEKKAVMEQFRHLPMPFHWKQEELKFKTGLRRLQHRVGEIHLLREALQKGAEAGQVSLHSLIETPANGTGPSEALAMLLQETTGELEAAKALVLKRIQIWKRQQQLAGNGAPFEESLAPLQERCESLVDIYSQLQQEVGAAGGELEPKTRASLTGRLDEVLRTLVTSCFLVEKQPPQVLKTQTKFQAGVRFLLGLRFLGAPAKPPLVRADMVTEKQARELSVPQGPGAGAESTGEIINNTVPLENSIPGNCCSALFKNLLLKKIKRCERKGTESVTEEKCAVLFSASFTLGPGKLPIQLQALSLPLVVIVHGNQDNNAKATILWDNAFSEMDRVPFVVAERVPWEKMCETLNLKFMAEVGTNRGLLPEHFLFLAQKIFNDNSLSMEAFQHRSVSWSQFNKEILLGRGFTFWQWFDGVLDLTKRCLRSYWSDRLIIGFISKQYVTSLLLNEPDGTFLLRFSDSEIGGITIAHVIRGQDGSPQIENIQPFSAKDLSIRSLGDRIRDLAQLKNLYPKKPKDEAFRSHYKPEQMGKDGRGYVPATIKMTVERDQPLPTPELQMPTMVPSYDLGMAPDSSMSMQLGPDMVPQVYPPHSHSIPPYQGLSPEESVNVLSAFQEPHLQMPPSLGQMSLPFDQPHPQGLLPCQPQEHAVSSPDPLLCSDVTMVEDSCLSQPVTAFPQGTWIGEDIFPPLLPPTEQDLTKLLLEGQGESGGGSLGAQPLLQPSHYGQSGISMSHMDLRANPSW

| DC50 | SMILES |
| --- | --- |
| 3 nM | Cn1c(CN2CCC(c3ccc(C(=O)N4CCC(CCn5cc(-c6cccc7c6n(C)c(=O)n7C6CCC(=O)NC6=O)cn5)CC4)cc3)CC2)cc2c(-c3ccc4[nH]ncc4c3)ccnc21 (stereo not drawn) [Example 3l2, 3-(4-(1-(2-(1-(4-(1-((4-(1H-indazol-5-yl)-1-methyl-1H-pyrrolo[2,3-b]pyridin-2-yl)methyl)-piperidin-4-yl)benzoyl)piperidin-4-yl)ethyl)-1H-pyrazol-4-yl)-3-methyl-2-oxo-2,3-dihydro-1H-benzo[d]-imidazol-1-yl)piperidine-2,6-dione] |
| 9 nM | COCCn1c(=O)n(C2CCC(=O)NC2=O)c2ccc(CN3CCN(CC4CCN(C(=O)c5ccc(C6CCN(Cc7cc8c(-c9ccc(N)nc9)ccnc8n7C)CC6)cc5)CC4)CC3)cc21 (stereo not drawn) [Example 3e7, 3-(5-((4-((1-(4-(1-((4-(6-aminopyridin-3-yl)-1-methyl-1H-pyrrolo[2,3-b]pyridin-2-yl)methyl)piperidin-4-yl)benzoyl)piperidin-4-yl)methyl)piperazin-1-yl)methyl)-3-(2-methoxyethyl)-2-oxo-2,3-dihydro-1H-benzo[d]imidazol-1-yl)piperidine-2,6-dione] |
| 0.3 nM | COCc1nc2cc(-c3ccnc4c3cc([C@H](C)N3CCC(c5ccc(C(=O)N6CCC(CN7CCN(Cc8ccc9c(c8)n(C)c(=O)n9C8CCC(=O)NC8=O)C[C@@H]7C)CC6)cc5)CC3)n4C)ccc2[nH]1 (stereo partly drawn) [Example 3e22, 3-(5-(((S)-4-((1-(4-(1-((S)-1-(4-(2-(methoxymethyl)-1H-benzo[d]imidazol-5-yl)-1-methyl-1H-pyrrolo[2,3-b]pyridin-2-yl)ethyl)piperidin-4-yl)benzoyl)piperidin-4-yl)methyl)-3-methylpiperazin-1-yl)methyl)-3-methyl-2-oxo-2,3-dihydro-1H-benzo[d]imidazol-1-yl)piperidine-2,6-dione] |

Further lines, the molecule ahead of its results:

| SMILES | DC50 |
| --- | --- |
| Cn1c(CN2CCC(c3ccc(C(=O)N4CCC(CN5CCN(Cc6ccc7c(c6)n(C6CC6)c(=O)n7C6CCC(=O)NC6=O)CC5)CC4)cc3)CC2)cc2c(-c3ccc4[nH]ncc4c3)ccnc21 (stereo not drawn) [Example 3e6, 3-(5-((4-((1-(4-(1-((4-(1H-indazol-5-yl)-1-methyl-1H-pyrrolo[2,3-b]pyridin-2-yl)methyl)piperidin-4-yl)benzoyl)piperidin-4-yl)methyl)piperazin-1-yl)methyl)-3-cyclopropyl-2-oxo-2,3-dihydro-1H-benzo[d]imidazol-1-yl)piperidine-2,6-dione] | 1.4 nM |
| Cn1c(CN2CCC(c3ccc(C(=O)N4CCC(OCC#Cc5cccc6c5n(C)c(=O)n6C5CCC(=O)NC5=O)CC4)cc3)CC2)cc2c(-c3ccc4[nH]ncc4c3)ccnc21 (stereo not drawn) [Example 3a1, 3-(4-(3-((1-(4-(1-((4-(1H-indazol-5-yl)-1-methyl-1H-pyrrolo[2,3-b]pyridin-2-yl)methyl)piperidin-4-yl)benzoyl)piperidin-4-yl)oxy)prop-1-yn-1-yl)-3-methyl-2-oxo-2,3-dihydro-1H-benzo[d]imidazol-1-yl)piperidine-2,6-dione] | 4.9 nM |
| Cn1c(CN2CCC(c3ccc(C(=O)N4CCC(OCC#Cc5ccc6c(c5)n(C)c(=O)n6C5CCC(=O)NC5=O)CC4)cc3)CC2)cc2c(-c3ccc4[nH]ncc4c3)ccnc21 (stereo not drawn) [Example 3b1, 3-(5-(3-((1-(4-(1-((4-(1H-indazol-5-yl)-1-methyl-1H-pyrrolo[2,3-b]pyridin-2-yl)methyl)piperidin-4-yl)benzoyl)piperidin-4-yl)oxy)prop-1-yn-1-yl)-3-methyl-2-oxo-2,3-dihydro-1H-benzo[d]imidazol-1-yl)piperidine-2,6-dione] | 2.4 nM |
| CNc1ccc(-c2ccnc3c2cc([C@H](C)N2CCC(c4ccc(C(=O)N5CCC(CN6CCN(Cc7ccc8c(c7)n(C)c(=O)n8C7CCC(=O)NC7=O)C[C@@H]6C)CC5)cc4)CC2)n3C)cn1 (stereo partly drawn) [Example 3h2, 3-(3-methyl-5-(((S)-3-methyl-4-((1-(4-(1-((S)-1-(1-methyl-4-(6-(methylamino)pyridin-3-yl)-1H-pyrrolo[2,3-b]pyridin-2-yl)ethyl)piperidin-4-yl)benzoyl)piperidin-4-yl)methyl)piperazin-1-yl)methyl)-2-oxo-2,3-dihydro-1H-benzo[d]imidazol-1-yl)piperidine-2,6-dione] | 0.8 nM |
| Cn1c(CN2CCC(c3ccc(C(=O)N4CCC(CC5CCN(Cc6ccc7c(c6)n(C)c(=O)n7C6CCC(=O)NC6=O)CC5)CC4)cc3)CC2)cc2c(-c3ccc4[nH]ncc4c3)ccnc21 (stereo not drawn) [Example 3h1, 3-(5-((4-((1-(4-(1-((4-(1H-indazol-5-yl)-1-methyl-1H-pyrrolo[2,3-b]pyridin-2-yl)methyl)-piperidin-4-yl)benzoyl)piperidin-4-yl)methyl)piperidin-1-yl)methyl)-3-methyl-2-oxo-2,3-dihydro-1H-benzo[d]imidazol-1-yl)piperidine-2,6-dione] | 2.4 nM |
| Cc1cc(C(=O)N2CCC(CN3CCN(Cc4ccc5c(c4)n(C4CC4)c(=O)n5[C@H]4CCC(=O)NC4=O)C[C@@H]3C)CC2)cc(F)c1C1=CCN([C@@H](C)c2cc3c(-c4ccc(N)nc4)ccnc3n2C)CC1 (single isomer, unassigned) [Example 3h16] | 1.6 nM |
| Cc1cc(C(=O)N(C)c2ccc(C3CCN(Cc4ccc5c(c4)n(C)c(=O)n5C4CCC(=O)NC4=O)CC3)cc2)cc(F)c1C1=CCN(Cc2cc3c(-c4ccc(N)nc4)ccnc3n2C)CC1 (stereo not drawn) [Example 3h39, 4-(1-((4-(6-aminopyridin-3-yl)-1-methyl-1H-pyrrolo[2,3-b]pyridin-2-yl)methyl)-1,2,3,6-tetrahydropyridin-4-yl)-N-(4-(1-((1-(2,6-dioxopiperidin-3-yl)-3-methyl-2-oxo-2,3-dihydro-1H-benzo[d]imidazol-5-yl)methyl)piperidin-4-yl)phenyl)-3-fluoro-N,5-dimethylbenzamide] | 0.1 nM |
| Cn1c(CN2CCC(c3ccc(C(=O)N4CCC(CCn5cc(-c6ccc7c(c6)n(C)c(=O)n7C6CCC(=O)NC6=O)cn5)CC4)cc3)CC2)cc2c(-c3ccc4[nH]ncc4c3)ccnc21 (stereo not drawn) [Example 3l4, 3-(5-(1-(2-(1-(4-(1-((4-(1H-indazol-5-yl)-1-methyl-1H-pyrrolo[2,3-b]pyridin-2-yl)methyl)-piperidin-4-yl)benzoyl)piperidin-4-yl)ethyl)-1H-pyrazol-4-yl)-3-methyl-2-oxo-2,3-dihydro-1H-benzo[d]imidazol-1-yl)piperidine-2,6-dione] | 2.6 nM |

Same assay, conditions: HeLa LgBiT clone 4.14, 4-24 h; read-out: STAT6 degradation Emax (%)

| Emax | SMILES |
| --- | --- |
| 50 to 60% | C[C@@H]1CN(Cc2ccc3c(c2)n(C)c(=O)n3C2CCC(=O)NC2=O)CCN1CC1CCN(C(=O)c2ccc(C3CCN(Cc4cc5c(-c6ccc(N)nc6)ccnc5n4C)CC3)cc2)CC1 (stereo partly drawn) [Example 3e8, 3-(5-(((R)-4-((1-(4-(1-((4-(6-aminopyridin-3-yl)-1-methyl-1H-pyrrolo[2,3-b]pyridin-2-yl)methyl)piperidin-4-yl)benzoyl)piperidin-4-yl)methyl)-3-methylpiperazin-1-yl)methyl)-3-methyl-2-oxo-2,3-dihydro-1H-benzo[d]imidazol-1-yl)piperidine-2,6-dione] |
| < 20% | Cn1c(CN2CCC(c3ccc(C(=O)N4CCC(CN5CCN(Cc6ccc7c(c6)n(C6CCC(=O)NC6=O)c(=O)n7C)CC5)CC4)cc3)CC2)cc2c(-c3ccc(N)nc3)ccnc21 (stereo not drawn) [Example 3o2, 3-(6-((4-((1-(4-(1-((4-(6-aminopyridin-3-yl)-1-methyl-1H-pyrrolo[2,3-b]pyridin-2-yl)methyl)piperidin-4-yl)benzoyl)piperidin-4-yl)methyl)piperazin-1-yl)methyl)-3-methyl-2-oxo-2,3-dihydro-1H-benzo[d]imidazol-1-yl)piperidine-2,6-dione] |
| 40 to 50% | Cn1c(CN2CCC(c3ccc(C(=O)N4CCC(CN5CCN(c6ccc7c(c6)n(C)c(=O)n7C6CCC(=O)NC6=O)CC5)CC4)cc3)CC2)cc2c(-c3ccc(N)nc3)ccnc21 (stereo not drawn) [Example 3m1, 3-(5-(4-((1-(4-(1-((4-(6-aminopyridin-3-yl)-1-methyl-1H-pyrrolo[2,3-b]pyridin-2-yl)methyl)-piperidin-4-yl)benzoyl)piperidin-4-yl)methyl)piperazin-1-yl)-3-methyl-2-oxo-2,3-dihydro-1H-benzo[d]imidazol-1-yl)piperidine-2,6-dione] |
| < 20% | C[C@@H](c1cc2c(-c3ccc(N)nc3)ccnc2n1C)N1CCC(c2ccc(C(=O)N3CCC(CN4CCN(Cc5ccc6c(c5)n(C5CC5)c(=O)n6C5CCC(=O)NC5=O)CC4)CC3)cc2)CC1 (stereo partly drawn) [Example 3e10, 3-(5-((4-((1-(4-(1-((S)-1-(4-(6-aminopyridin-3-yl)-1-methyl-1H-pyrrolo[2,3-b]pyridin-2-yl)ethyl)piperidin-4-yl)benzoyl)piperidin-4-yl)methyl)piperazin-1-yl)methyl)-3-cyclopropyl-2-oxo-2,3-dihydro-1H-benzo[d]imidazol-1-yl)piperidine-2,6-dione] |
